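1) Cells in 96-well plates. 2) Compound, 48 h, 5 concentrations. 3) Linear interpolation between surrounding doses. 4) Unreached endpoint = highest concentration. GI50 is the concentration that inhibits growth by half. TGI marks complete inhibition of growth.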
Experiments:
Assay in all cases: NCI tumour cell line growth inhibition, 48 h
[1] = system: MDA-MB-435
[2] = system: RPMI-8226 leukemia
[3] = system: NCI-H522 lung
[4] = system: HOP-62 NSCLC
[5] = system: UACC-62 melanoma
[6] = system: SN12C renal
[7] = system: HS 578T breast
[8] = system: HT29 colon
[9] = system: SNB-19 CNS
[10] = system: HCT-116 colon
[11] = system: UO-31 renal
[12] = system: KM12 colon
[13] = system: MDA-MB-231 breast
[14] = system: NCI-H226 lung
[15] = system: SK-MEL-2 melanoma
[16] = system: A498 renal
[17] = system: SF-295 CNS
[18] = system: HCC-2998 colon
[19] = system: 786-0 renal
[20] = system: HCT-15 colon
[21] = system: CAKI-1 renal
[22] = system: CCRF-CEM leukemia
[23] = system: SW-620 colon
[24] = system: T-47D breast
[25] = system: SNB-75 CNS
[26] = system: OVCAR-3 ovarian
[27] = system: SR leukemia
[28] = system: ACHN renal
[29] = system: HL-60(TB) leukemia
[30] = system: NCI-H23 lung
[31] = system: MCF7 breast
[32] = system: SK-MEL-5 melanoma
[33] = system: MALME-3M melanoma
[34] = system: COLO 205 colon
[35] = system: SK-MEL-28 melanoma
[36] = system: SK-OV-3 ovarian
[37] = system: EKVX NSCLC
[38] = system: NCI/ADR-RES ovarian
[39] = system: OVCAR-5 ovarian
[40] = system: IGROV1 ovarian
[41] = system: A549 NSCLC
[42] = system: OVCAR-4 ovarian
[43] = system: SF-539 CNS
[44] = system: OVCAR-8 ovarian
[45] = system: BT-549 breast
[46] = system: K-562 leukemia
[47] = system: DU-145 prostate
[48] = system: HOP-92 NSCLC
[49] = system: SF-268 CNS
[50] = system: TK-10 renal
[51] = system: RXF 393 renal
[52] = system: M14 melanoma
[53] = system: NCI-H460 lung
[54] = system: U251 CNS
[55] = system: UACC-257 melanoma
[56] = system: PC-3 prostate
[57] = system: LOX IMVI melanoma
[58] = system: MDA-N
[59] = system: MOLT-4 leukemia

With `O=C(Nc1ccc(Oc2ccc(Nc3nc4ccccc4s3)cc2)cc1)Nc1ccc(Cl)c(C(F)(F)F)c1` the GI50 [1] was 1.48 µM, the TGI [1] was 3 µM and the GI50 [2] was 1.11 µM. It also gave a TGI [2] of 4.34 µM, a GI50 [3] of 1.51 µM and a TGI [3] of 3.39 µM. It also gave a GI50 [4] of 1.82 µM, a TGI [4] of 4.03 µM and a GI50 [5] of 1.23 µM. For the same molecule, the TGI [5] was 2.57 µM, the GI50 [6] was 1.42 µM and the TGI [6] was 3.03 µM. It also gave a GI50 [7] of 2.07 µM, a TGI [7] of 7.55 µM and a GI50 [8] of 1.72 µM. The TGI [8] was 3.23 µM, the GI50 [9] was 1.71 µM and the TGI [9] was 3.62 µM. The GI50 [10] was 1.31 µM, the TGI [10] was 2.61 µM and the GI50 [11] was 1.22 µM. It also gave a TGI [11] of 2.82 µM, a GI50 [12] of 1.51 µM and a TGI [12] of 3.34 µM. For the same molecule, the GI50 [13] was 1.37 µM, the TGI [13] was 2.86 µM and the GI50 [14] was 1.39 µM. For the same molecule, the TGI [14] was 3.33 µM, the GI50 [15] was 2.12 µM and the TGI [15] was 4.35 µM. The GI50 [16] was 1.46 µM, the TGI [16] was 3.16 µM and the GI50 [17] was 1.66 µM. The TGI [17] was 3.41 µM, the GI50 [18] was 1.87 µM and the TGI [18] was 3.91 µM. The GI50 [19] was 1.79 µM, the TGI [19] was 4.63 µM and the GI50 [20] was 1.54 µM. The TGI [20] was 3.44 µM, the GI50 [21] was 2.05 µM and the TGI [21] was 7.98 µM. For the same molecule, the GI50 [22] was 1.76 µM, the TGI [22] was > 100 µM and the GI50 [23] was 1.75 µM. The TGI [23] was 3.54 µM, the GI50 [24] was 1.21 µM and the TGI [24] was 3.96 µM. For the same molecule, the GI50 [25] was 1.41 µM, the TGI [25] was 5.27 µM and the GI50 [26] was 1.54 µM. It also gave a TGI [26] of 3.98 µM, a GI50 [27] of 1.32 µM and a TGI [27] of 5.81 µM. The GI50 [28] was 1.51 µM, the TGI [28] was 5.49 µM and the GI50 [29] was 2.21 µM. It also gave a TGI [29] of 5.59 µM, a GI50 [30] of 1.06 µM and a TGI [30] of 2.77 µM. It also gave a GI50 [31] of 1.35 µM, a TGI [31] of 3.7 µM and a GI50 [32] of 1.45 µM. For the same molecule, the TGI [32] was 2.79 µM, the GI50 [33] was 1.8 µM and the TGI [33] was 3.79 µM. For the same molecule, the GI50 [34] was 1.64 µM, the TGI [34] was 3.25 µM and the GI50 [35] was 1.57 µM. For the same molecule, the TGI [35] was 3.2 µM, the GI50 [36] was 1.86 µM and the TGI [36] was 4.42 µM. For the same molecule, the GI50 [37] was 1.62 µM, the TGI [37] was 5.45 µM and the GI50 [38] was 1.8 µM. For the same molecule, the TGI [38] was 4.11 µM, the GI50 [39] was 1.64 µM and the TGI [39] was 3.61 µM. It also gave a GI50 [40] of 1.67 µM, a TGI [40] of 3.62 µM and a GI50 [41] of 1.97 µM. It also gave a TGI [41] of 6.26 µM, a GI50 [42] of 1.31 µM and a TGI [42] of 3.16 µM. It also gave a GI50 [43] of 1.64 µM, a TGI [43] of 3.75 µM and a GI50 [44] of 2.22 µM. It also gave a TGI [44] of 7.29 µM, a GI50 [45] of 1.54 µM and a TGI [45] of 3.05 µM. For the same molecule, the GI50 [46] was 2.51 µM, the TGI [46] was 14.2 µM and the GI50 [47] was 2.47 µM. It also gave a TGI [47] of 7.22 µM, a GI50 [48] of 0.73 µM and a TGI [48] of 3.28 µM. For the same molecule, the GI50 [49] was 1.94 µM, the TGI [49] was 4.74 µM and the GI50 [50] was 2.3 µM. It also gave a TGI [50] of 5.35 µM, a GI50 [51] of 1.8 µM and a TGI [51] of 4 µM. For the same molecule, the GI50 [52] was 1.46 µM, the TGI [52] was 3.13 µM and the GI50 [53] was 1.74 µM. The TGI [53] was 4.34 µM, the GI50 [54] was 1.61 µM and the TGI [54] was 3.55 µM. For the same molecule, the GI50 [55] was 1.83 µM, the TGI [55] was 6.09 µM and the GI50 [56] was 1.07 µM. The TGI [56] was 2.79 µM, the GI50 [57] was 1.42 µM and the TGI [57] was 2.76 µM.
`Oc1ccc2c(c1)c1c(n2CCN2CCOCC2)-c2ccccc2CC1` was tested, and the TGI [58] was > 100 µM, the TGI [2] was > 100 µM and the TGI [4] was 59.2 µM. For the same molecule, the TGI [5] was 48.1 µM, the TGI [6] was 95.9 µM and the TGI [7] was 56.9 µM. For the same molecule, the TGI [8] was 45.8 µM, the TGI [9] was > 100 µM and the TGI [10] was > 100 µM. For the same molecule, the TGI [11] was > 100 µM, the TGI [12] was 35.8 µM and the TGI [13] was 80 µM. It also gave a TGI [14] of 85.6 µM, a TGI [15] of 55.1 µM and a TGI [16] of 52.6 µM. For the same molecule, the TGI [17] was > 100 µM, the TGI [19] was > 100 µM and the TGI [20] was 66.1 µM. The TGI [59] was > 100 µM, the TGI [21] was > 100 µM and the TGI [22] was > 100 µM. The TGI [23] was > 100 µM, the TGI [25] was 76.3 µM and the TGI [26] was 49.5 µM. The TGI [27] was 91.5 µM, the TGI [28] was > 100 µM and the TGI [29] was > 100 µM. The TGI [30] was 82.1 µM, the TGI [31] was > 100 µM and the TGI [33] was 53.2 µM. For the same molecule, the TGI [35] was 55.6 µM, the TGI [36] was > 100 µM and the TGI [37] was 92.5 µM. The TGI [38] was 74.2 µM, the TGI [39] was 60.5 µM and the TGI [40] was 57.6 µM. For the same molecule, the TGI [43] was 44.9 µM, the TGI [44] was > 100 µM and the TGI [45] was > 100 µM. For the same molecule, the TGI [46] was > 100 µM, the TGI [49] was > 100 µM and the TGI [50] was 77.9 µM. The TGI [51] was 75.7 µM, the TGI [52] was 57.3 µM and the TGI [53] was 44.2 µM. For the same molecule, the TGI [54] was > 100 µM, the TGI [55] was > 100 µM and the TGI [56] was > 100 µM. The TGI [57] was 57.8 µM.

— PubChem BioAssay (NCI)
